The structures appear in SMILES notation.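 Test compounds were applied to cells in 96-well plates for 48 hours at 5 doses. Definition used: TGI = concentration required for complete inhibition of growth.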 Some results are limits rather than exact numbers.

Some test systems named below: OVCAR-5 ovarian; OVCAR-8 ovarian; SNB-19 CNS; CCRF-CEM leukemia; 786-0 renal; HL-60(TB) leukemia; ACHN renal; IGROV1 ovarian; RXF 393 renal; HOP-92 NSCLC.
Holding throughout (assay): growth of human tumour cells (NCI), 48 h

On to `O=C1CCC2(CCO1)OCCO2`, for which the TGI with OVCAR-5 ovarian, in the experiment with OVCAR-8 ovarian, with SNB-19 CNS, with CCRF-CEM leukemia, in the experiment with 786-0 renal and in the experiment with HL-60(TB) leukemia was greater than 100 µM throughout. The TGI in the experiment with ACHN renal, in the experiment on IGROV1 ovarian and in the experiment on RXF 393 renal was greater than 100 µM in each case.

For `Cc1ccc(C2=NOC(=O)[C@@H]3CCCC[C@@H]23)cc1`, the TGI in the experiment on OVCAR-5 ovarian, in the experiment with OVCAR-8 ovarian, in the experiment on SNB-19 CNS, in the experiment with CCRF-CEM leukemia, with 786-0 renal and in the experiment with HL-60(TB) leukemia was greater than 100 µM each time. For the same compound, the TGI in the experiment on ACHN renal, in the experiment on IGROV1 ovarian and with RXF 393 renal was greater than 100 µM in each case.

In the case of `CCOP(=O)(OCC)C(Nc1cccc(F)c1)c1ccccc1` (stereo unspecified), the TGI in the experiment on OVCAR-8 ovarian was greater than 100 µM; with HOP-92 NSCLC, greater than 100 µM; in the experiment on SNB-19 CNS, greater than 100 µM; in the experiment on CCRF-CEM leukemia, greater than 100 µM; in the experiment on 786-0 renal, greater than 100 µM; in the experiment with HL-60(TB) leukemia it was 55.3 µM. Besides, the TGI in the experiment with ACHN renal, in the experiment with IGROV1 ovarian and in the experiment on RXF 393 renal was greater than 100 µM throughout.

For `CC1(C)OCC(C(O)C2OC(C)(C)OC2C=O)O1` (stereo unspecified), the TGI in the experiment on OVCAR-5 ovarian, in the experiment with OVCAR-8 ovarian, with SNB-19 CNS, in the experiment on CCRF-CEM leukemia, with 786-0 renal and in the experiment with ACHN renal was greater than 100 µM in each case. This compound displayed a TGI with IGROV1 ovarian greater than 100 µM.

On to `COc1ccc2c(c1)C(N)=C(c1ccccc1)C2=O`, for which the TGI with OVCAR-5 ovarian, in the experiment with OVCAR-8 ovarian, in the experiment with HOP-92 NSCLC, with SNB-19 CNS, in the experiment with CCRF-CEM leukemia and with 786-0 renal was greater than 100 µM throughout. The TGI with HL-60(TB) leukemia, with ACHN renal and with IGROV1 ovarian was greater than 100 µM in each case.

In the case of `O=[N+]([O-])c1ccc(S[C@@H]2[C@H]3c4c(-c5ccccc5)[nH]c(-c5ccccc5)c4[C@@H]2C[C@H]3Cl)cc1`, the TGI was greater than 100 µM in the experiment on OVCAR-5 ovarian; greater than 100 µM in the experiment with OVCAR-8 ovarian; greater than 100 µM in the experiment on HOP-92 NSCLC; greater than 100 µM in the experiment with SNB-19 CNS; 23.8 µM with 786-0 renal; 24.3 µM with HL-60(TB) leukemia. In addition, the TGI is greater than 100 µM in the experiment on ACHN renal, greater than 100 µM in the experiment on IGROV1 ovarian and 4.3 µM with RXF 393 renal.

For the compound `CC(C)=CCC[C@@H](C)C1=C(Nc2ccccc2Cl)C(O)=C(C)C(=O)C1=O`, the TGI in the experiment with OVCAR-5 ovarian was greater than 52 µM; with OVCAR-8 ovarian, 9.09 µM; with HOP-92 NSCLC, 29.3 µM; in the experiment with SNB-19 CNS, 26.8 µM; with 786-0 renal it was greater than 39.1 µM; in the experiment on HL-60(TB) leukemia, 2.94 µM. The TGI was 11.1 µM with ACHN renal, greater than 39.1 µM in the experiment on IGROV1 ovarian and 32.7 µM with RXF 393 renal.

With `Nc1nc(-c2ccccc2N=NN2CCCC2)nc2ccccc12`, the TGI in the experiment with OVCAR-5 ovarian is 4.66 µM; in the experiment with OVCAR-8 ovarian it was 3.77 µM; with HOP-92 NSCLC, 21.3 µM; in the experiment with SNB-19 CNS, 16.5 µM; with CCRF-CEM leukemia it was 19.1 µM; with 786-0 renal, 4.77 µM. The results for the TGI in the experiment on ACHN renal, in the experiment on IGROV1 ovarian and in the experiment with RXF 393 renal were 11.7 µM, 17.3 µM and 20.4 µM, respectively.

In the case of `CC[N+](C)(CC)CCC(O)(c1ccccc1)c1ccccc1`, the TGI with OVCAR-5 ovarian, with OVCAR-8 ovarian, in the experiment with SNB-19 CNS, with CCRF-CEM leukemia, with 786-0 renal and with HL-60(TB) leukemia was greater than 100 µM in each case. The TGI with ACHN renal, in the experiment on IGROV1 ovarian and in the experiment on RXF 393 renal was greater than 100 µM each time.

With `COc1cccc(CC(C)NCC(O)c2ccc(O)c(O)c2)c1` (stereo unspecified), the TGI is 47.4 µM in the experiment with OVCAR-5 ovarian; 53.6 µM in the experiment with OVCAR-8 ovarian; greater than 100 µM in the experiment with HOP-92 NSCLC; greater than 100 µM with SNB-19 CNS; greater than 100 µM in the experiment with CCRF-CEM leukemia; greater than 100 µM with 786-0 renal. Besides, the TGI with ACHN renal, in the experiment with IGROV1 ovarian and in the experiment with RXF 393 renal was greater than 100 µM in each case.

Turning to `C/C(=C\c1ccccn1)c1ccccn1`, the TGI in the experiment on OVCAR-5 ovarian, with OVCAR-8 ovarian, in the experiment with HOP-92 NSCLC, with SNB-19 CNS, in the experiment with 786-0 renal and with ACHN renal was greater than 100 µM in each case. The TGI in the experiment on IGROV1 ovarian and in the experiment with RXF 393 renal was greater than 100 µM throughout.

As for `C/C=C\C(CC(=O)NCCc1cn(C(=O)OCc2ccccc2)c2ccccc12)CC(=O)OC` (stereo unspecified), the TGI in the experiment with OVCAR-5 ovarian, in the experiment with OVCAR-8 ovarian, in the experiment with HOP-92 NSCLC, in the experiment with SNB-19 CNS, with 786-0 renal and with ACHN renal was greater than 100 µM each time. The TGI with IGROV1 ovarian and in the experiment on RXF 393 renal was greater than 100 µM each time.

`O=C(CCN1CCCC1)Nc1ccc2sc3ccccc3c(=O)c2n1`: the TGI with OVCAR-5 ovarian came out at 19 µM; in the experiment on OVCAR-8 ovarian, 17.3 µM; in the experiment with HOP-92 NSCLC, 60.4 µM; with SNB-19 CNS, 19.6 µM; in the experiment with CCRF-CEM leukemia, 25.8 µM; in the experiment on 786-0 renal, 17.5 µM. Besides, the TGI in the experiment with HL-60(TB) leukemia was 16.3 µM; with ACHN renal, 16.3 µM; in the experiment on IGROV1 ovarian, 23.6 µM.

Turning to `C/C(=N\NC(=S)N1CCCCC1)c1cccc(C)n1`, the TGI in the experiment with OVCAR-5 ovarian is 21.1 µM; in the experiment on OVCAR-8 ovarian it was 2.1 µM; with HOP-92 NSCLC, 11.3 µM; with SNB-19 CNS it was greater than 36 µM; in the experiment on 786-0 renal, 1.19 µM; with ACHN renal, 2.67 µM. In addition, the figures for the TGI in the experiment on IGROV1 ovarian and in the experiment on RXF 393 renal were 12.8 µM and 14.4 µM, respectively.

In the case of `CC[N+]1(C)CCC(O)(/C=C/c2ccc(OC)cc2)C(C(=O)/C=C/c2ccc(OC)cc2)C1` (stereo unspecified), the TGI in the experiment on OVCAR-5 ovarian was 44.1 µM; with OVCAR-8 ovarian, greater than 56.2 µM; with HOP-92 NSCLC it was 34.5 µM; with SNB-19 CNS, 35.6 µM; with 786-0 renal it was greater than 25.8 µM; in the experiment on HL-60(TB) leukemia it was 5.03 µM. In addition, the TGI in the experiment on ACHN renal was 23.2 µM; in the experiment with IGROV1 ovarian, 47.1 µM; in the experiment on RXF 393 renal it was 28.4 µM.

On to `Nc1cccc2c1C(=O)c1cccc(N)c1C2=O`, for which the TGI with OVCAR-5 ovarian, in the experiment on OVCAR-8 ovarian, in the experiment on HOP-92 NSCLC, in the experiment on SNB-19 CNS, in the experiment on CCRF-CEM leukemia and in the experiment with 786-0 renal was greater than 100 µM in each case. Also, the TGI in the experiment on ACHN renal, in the experiment with IGROV1 ovarian and in the experiment with RXF 393 renal was greater than 100 µM in each case.

Take `Cc1cc(O)c(C(C)C)cc1SC#N`: the TGI in the experiment with OVCAR-8 ovarian was 88.9 µM; in the experiment with HOP-92 NSCLC, 25.3 µM; in the experiment on CCRF-CEM leukemia, 24.6 µM; in the experiment on HL-60(TB) leukemia it was greater than 100 µM; with ACHN renal, 30.1 µM; in the experiment with IGROV1 ovarian, 37.6 µM. Also, the TGI in the experiment on RXF 393 renal amounted to 29.1 µM.

`COC(=O)C1CCC(=O)N1C(=O)Cc1ccc(OC)cc1` (stereo unspecified): the TGI in the experiment on OVCAR-5 ovarian, in the experiment on OVCAR-8 ovarian, in the experiment with HOP-92 NSCLC, in the experiment with SNB-19 CNS, in the experiment with ACHN renal and in the experiment with IGROV1 ovarian was greater than 100 µM throughout.

`CN(C)CCNC(=O)c1ccc(NCCCN(C)CCCNc2ccc3c(=O)n(CCN(C)C)c(=O)n4c5ccccc5c(=O)c2c34)c2c(=O)c3ccccc3[nH]c12`: the TGI worked out at 0.68 µM in the experiment on OVCAR-5 ovarian; 0.885 µM in the experiment on OVCAR-8 ovarian; 2.92 µM in the experiment on HOP-92 NSCLC; 0.523 µM with SNB-19 CNS; 0.11 µM with 786-0 renal; 0.273 µM with HL-60(TB) leukemia. The TGI with ACHN renal is 0.653 µM; in the experiment with IGROV1 ovarian, 1.16 µM; with RXF 393 renal, 0.271 µM.

`Cc1ccccc1-n1c(C)nc2c1C(=O)c1ccccc1C2=O`: the TGI is greater than 100 µM in the experiment with OVCAR-5 ovarian; greater than 100 µM with OVCAR-8 ovarian; greater than 100 µM in the experiment on SNB-19 CNS; greater than 100 µM in the experiment on CCRF-CEM leukemia; greater than 100 µM in the experiment on 786-0 renal; 87.5 µM in the experiment with HL-60(TB) leukemia. In addition, the TGI with ACHN renal and with RXF 393 renal was greater than 100 µM throughout.

With `CN(C)c1nc(N(C)C)nc(N(C)C23CC4CC(CC(C4)C2)C3)n1`, the TGI was greater than 100 µM in the experiment on OVCAR-5 ovarian; greater than 100 µM in the experiment with OVCAR-8 ovarian; 55.8 µM with HOP-92 NSCLC; 96 µM in the experiment on SNB-19 CNS; 66.6 µM with CCRF-CEM leukemia; greater than 100 µM in the experiment on 786-0 renal. The TGI in the experiment on ACHN renal is greater than 100 µM; in the experiment with IGROV1 ovarian it was 58.8 µM; in the experiment on RXF 393 renal, 67.9 µM.

Take `N=C1N(S(=O)(=O)c2ccccc2)[C@@H](Cc2ccccc2)[C@H](c2ccccc2)C1(c1ccccc1)c1ccccc1`: the TGI in the experiment with OVCAR-5 ovarian, with OVCAR-8 ovarian, in the experiment with SNB-19 CNS, with CCRF-CEM leukemia, in the experiment on 786-0 renal and in the experiment on HL-60(TB) leukemia was greater than 100 µM each time. Besides, the TGI in the experiment with ACHN renal, in the experiment on IGROV1 ovarian and in the experiment with RXF 393 renal was greater than 100 µM throughout.

Take `COc1nc2c(c(=O)n1C)N[C@H]1[C@H](OC(C)=O)[C@@H](OC(C)=O)CO[C@H]1N2`: the TGI in the experiment with OVCAR-5 ovarian, in the experiment on OVCAR-8 ovarian, in the experiment with HOP-92 NSCLC, with SNB-19 CNS, in the experiment on 786-0 renal and with HL-60(TB) leukemia was greater than 100 µM in each case. The TGI in the experiment on ACHN renal, with IGROV1 ovarian and with RXF 393 renal was greater than 100 µM each time.

(Values after PubChem BioAssay (NCI).)
